Columns and labels:
Assay in all cases: relative viability (nuclei count vs DMSO), 5 days (fraction); higher = more cells survive
[1] = compound: CCn1c(-c2nonc2N)nc2c(C#CC(C)(C)O)ncc(OC[C@H]3CCCNC3)c21 + N=C(N)NC(=N)NCCc1ccccc1 [Phenformin] (partner 250 µM)
Method in brief: (§1)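 Lung cancer cell lines in 1536-well plates were dosed by pin tool the day after seeding, either with one drug alone or with a fixed anchor-drug dose plus five library-drug doses (not always all listed) in √10 steps. After 5 days, cells were fixed and their nuclei stained in one step (final 0.05% Triton X-100, 1% formaldehyde, 1 ug/ml Hoechst), then counted on 4× images. Relative viability is the nuclei count in treated wells divided by that in vehicle wells. Values are medians of duplicate plates.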

BAM7 + Pictilisib = compound: CCOC1=CC=CC=C1N=NC2=C(NN(C2=O)C3=NC(=CS3)C4=CC=CC=C4)C [BAM7] + CS(=O)(=O)N1CCN(Cc2cc3nc(-c4cccc5[nH]ncc45)nc(N4CCOCC4)c3s2)CC1 [Pictilisib] (partner 1 µM)
Method in brief: as §1

BAM7 + Trametinib = compound: CCOC1=CC=CC=C1N=NC2=C(NN(C2=O)C3=NC(=CS3)C4=CC=CC=C4)C [BAM7] + CC(=O)Nc1cccc(-n2c(=O)n(C3CC3)c(=O)c3c(Nc4ccc(I)cc4F)n(C)c(=O)c(C)c32)c1 [Trametinib] (partner 0.02 µM)
Method in brief: as §1

BAM7 + AZD7762 = compound: CCOC1=CC=CC=C1N=NC2=C(NN(C2=O)C3=NC(=CS3)C4=CC=CC=C4)C [BAM7] + NC(=O)Nc1cc(-c2cccc(F)c2)sc1C(=O)N[C@H]1CCCNC1 [AZD7762] (partner 0.2 µM)
Method in brief: as §1

| Cell Line | relative viability ([1]; first compound 0.01 µM) | relative viability ([1]; first compound 0.03162 µM) | relative viability ([1]; first compound 0.1 µM) | relative viability ([1]; first compound 0.3162 µM) | relative viability ([1]; first compound 1 µM) | relative viability (BAM7 + Pictilisib; first compound 0.5 µM) | relative viability (BAM7 + Pictilisib; first compound 5 µM) | relative viability (BAM7 + Pictilisib; first compound 15.81 µM) | relative viability (BAM7 + Pictilisib; first compound 50 µM) | relative viability (BAM7 + Trametinib; first compound 0.5 µM) | relative viability (BAM7 + Trametinib; first compound 5 µM) | relative viability (BAM7 + Trametinib; first compound 15.81 µM) | relative viability (BAM7 + Trametinib; first compound 50 µM) | relative viability (BAM7 + AZD7762; first compound 0.5 µM) | relative viability (BAM7 + AZD7762; first compound 5 µM) | relative viability (BAM7 + AZD7762; first compound 15.81 µM) | relative viability (BAM7 + AZD7762; first compound 50 µM) |
| --- | --- | --- | --- | --- | --- | --- | --- | --- | --- | --- | --- | --- | --- | --- | --- | --- | --- |
| NCI-H1993 | 0.485 | 0.47 | 0.5 | 0.478 | 0.495 | 0.82 | 0.896 | 0.778 | 0.879 | 0.456 | 0.524 | 0.479 | 0.506 | 0.814 | 0.624 | 0.495 | 0.665 |
| NCI-H647 | 0.595 | 0.573 | 0.554 | 0.399 | 0.345 | 0.49 | 0.511 | 0.478 | 0.541 | 0.457 | 0.599 | 0.494 | 0.445 | 0.559 | 0.488 | 0.592 | 0.459 |
| NCI-H1792 | 0.203 | 0.291 | 0.258 | 0.262 | 0.299 | 0.282 | 0.258 | 0.228 | 0.289 | 0.46 | 0.462 | 0.401 | 0.362 | 0.681 | 0.65 | 0.605 | 0.633 |
| ChaGo-K-1 | 0.462 | 0.508 | 0.502 | 0.438 | 0.469 | 0.647 | 0.878 | 0.789 | 0.929 | 0.894 | 0.895 | 0.853 | 0.842 | 0.831 | 0.891 | 0.843 | 0.808 |
